From ChEMBL document CHEMBL5614417, “Discovery of AMPs from random peptides via deep learning-based model and biological activity validation” (Eur J Med Chem, 2024)
In brackets after ≈: the same amount, converted by molar mass. Activity calls are given as the source filed them. The calls are words filed in the database; no cut-off is given here. Where a SMILES comes first, the peptide text is derived from it.

Tests used:
[1] = system: Staphylococcus epidermidis; assay: Antibacterial activity against Staphylococcus epidermidis ATCC 12228 incubated for 18 hrs by visual inspection method; format: functional
[2] = system: Bacillus subtilis; assay: Antibacterial activity against Bacillus subtilis ATCC 23857 incubated for 18 hrs by visual inspection method; format: functional
[3] = system: Staphylococcus aureus; assay: Antibacterial activity against methicillin resistant Staphylococcus aureus 4 incubated for 18 hrs by visual inspection method; format: functional
[4] = system: Staphylococcus aureus; assay: Antibacterial activity against Staphylococcus aureus ATCC 25923 incubated for 18 hrs in presence of 150 mM NaCl by visual inspection method; format: functional
[5] = system: Escherichia coli; assay: Antibacterial activity against Escherichia coli ATCC 25922 incubated for 18 hrs in presence of 50 mM NaCl by visual inspection method; format: functional
[6] = system: Acinetobacter baumannii; assay: Antibacterial activity against multidrug resistant Acinetobacter baumannii 2 incubated for 18 hrs by visual inspection method; format: functional
[7] = system: Cell membrane; assay: Induction of cell membrane damage in Escherichia coli assessed as change in morphology by measuring deformed membrane at 4 times MIC incubated for 5 hrs by SEM analysis; format: cell membranes
[8] = system: Staphylococcus aureus; assay: Antibacterial activity against Staphylococcus aureus ATCC 25923 incubated for 18 hrs in presence of 100 mM NaCl by visual inspection method; format: functional
[9] = system: Acinetobacter baumannii; assay: Antibacterial activity against multidrug resistant Acinetobacter baumannii 1 incubated for 18 hrs by visual inspection method; format: functional
[10] = system: Erythrocyte; assay: Hemolytic activity in rat erythrocytes at 250 ug/ml incubated for 1 hr; format: toxicity, cell-based; conditions: dose 250 µg/ml
[11] = system: Escherichia coli; assay: Antibacterial activity against ESBL Escherichia coli 3 incubated for 18 hrs by visual inspection method; format: functional
[12] = system: Escherichia coli; assay: Antibacterial activity against ESBL Escherichia coli 4 incubated for 18 hrs by visual inspection method; format: functional
[13] = system: Staphylococcus aureus; assay: Antibacterial activity against Staphylococcus aureus ATCC 25923 incubated for 18 hrs by visual inspection method; format: functional
[14] = system: Erythrocyte; assay: Hemolytic activity in rat erythrocytes incubated for 1 hr; format: toxicity, cell-based
[15] = system: Cell membrane; assay: Induction of cell membrane damage in Staphylococcus aureus assessed as change in morphology by measuring roughened membrane at 4 times MIC incubated for 5 hrs by SEM analysis; format: cell membranes
[16] = system: Cell membrane; assay: Induction of cell membrane damage in Escherichia coli assessed as change in morphology by measuring roughened membrane at 4 times MIC incubated for 5 hrs by SEM analysis; format: cell membranes
[17] = system: Cell membrane; assay: Induction of inner membrane permeability in Escherichia coli ML-35 at 1 to 4 times MIC by ONPG dye based assay; format: cell membranes; conditions: TDE = time-dependent effect
[18] = system: Cell membrane; assay: Disruption of outer membrane integrity in Escherichia coli assessed as increase in fluorescence intensity by measuring NPN uptake at 1 to 4 times MIC by fluorescence based analysis; format: cell membranes; conditions: TDE = time-dependent effect
[19] = system: Escherichia coli; assay: Antibacterial activity against ESBL Escherichia coli 2 incubated for 18 hrs by visual inspection method; format: functional
[20] = system: Acinetobacter baumannii; assay: Antibacterial activity against Acinetobacter baumannii ATCC 19606 incubated for 18 hrs by visual inspection method; format: functional
[21] = system: Cell membrane; assay: Induction of cell membrane damage in Staphylococcus aureus assessed as decrease in red/green fluorescence ratio at 2 times MIC by DiOC2(3) fluorescent probe based assay; format: cell membranes
[22] = system: Staphylococcus aureus; assay: Antibacterial activity against methicillin resistant Staphylococcus aureus 3 incubated for 18 hrs by visual inspection method; format: functional
[23] = system: Escherichia coli; assay: Antibacterial activity against Escherichia coli ATCC 25922 incubated for 18 hrs by visual inspection method; format: functional
[24] = system: Escherichia coli; assay: Antibacterial activity against Escherichia coli ATCC 25922 incubated for 18 hrs in presence of 100 mM NaCl by visual inspection method; format: functional
[25] = system: Cell membrane; assay: Induction of cell membrane damage in Staphylococcus aureus assessed as change in morphology by measuring deformed membrane at 4 times MIC incubated for 5 hrs by SEM analysis; format: cell membranes
[26] = system: Staphylococcus aureus; assay: Antibacterial activity against methicillin resistant Staphylococcus aureus 2 incubated for 18 hrs by visual inspection method; format: functional
[27] = system: Escherichia coli; assay: Antibacterial activity against ESBL Escherichia coli 5 incubated for 18 hrs by visual inspection method; format: functional
[28] = system: Cell membrane; assay: Induction of cell membrane damage in Staphylococcus aureus assessed as decrease in red/green fluorescence ratio by DiOC2(3) fluorescent probe based assay; format: cell membranes
[29] = system: Cell membrane; assay: Disruption of outer membrane integrity in Escherichia coli assessed as increase in fluorescence intensity by measuring NPN uptake measured every min for 15 mins by fluorescence based analysis; format: cell membranes
[30] = system: Cell membrane; assay: Induction of inner membrane permeability in Escherichia coli ML-35 measured every 5 mins for 90 mins by ONPG dye based assay; format: cell membranes
[31] = system: Cell membrane; assay: Induction of cell membrane damage in Staphylococcus aureus assessed as change in morphology by measuring numerous blebs covered membrane at 4 times MIC incubated for 5 hrs by SEM analysis; format: cell membranes
[32] = system: Cell membrane; assay: Induction of cell membrane damage in Escherichia coli assessed as change in morphology by measuring numerous blebs covered membrane at 4 times MIC incubated for 5 hrs by SEM analysis; format: cell membranes
[33] = system: Acinetobacter baumannii; assay: Antibacterial activity against multidrug resistant Acinetobacter baumannii 4 incubated for 18 hrs by visual inspection method; format: functional
[34] = system: Escherichia coli; assay: Antibacterial activity against Escherichia coli ATCC 25922 incubated for 18 hrs in presence of 150 mM NaCl by visual inspection method; format: functional
[35] = system: Erythrocyte; assay: Hemolytic activity in rat erythrocytes at 500 to 1000 ug/ml incubated for 1 hr; format: toxicity, cell-based; conditions: dose 500-1000 µg/ml
[36] = system: Escherichia coli; assay: Antibacterial activity against ESBL Escherichia coli 1 incubated for 18 hrs by visual inspection method; format: functional
[37] = system: Cell membrane; assay: Induction of cell membrane damage in Staphylococcus aureus at 4 times MIC incubated for 30 mins by PI staining based confocal laser scanning microscopic analysis; format: cell membranes
[38] = system: Cell membrane; assay: Induction of cell membrane damage in Escherichia coli at 4 times MIC incubated for 30 mins by PI staining based confocal laser scanning microscopic analysis; format: cell membranes
[39] = Hemolytic activity in rat erythrocytes at 1000 ug/ml incubated for 1 hr; format: toxicity, cell-based, Erythrocyte; conditions: at 1000 µg/mL, read-out: Activity
[40] = system: Acinetobacter baumannii; assay: Antibacterial activity against multidrug resistant Acinetobacter baumannii 5 incubated for 18 hrs by visual inspection method; format: functional
[41] = system: Staphylococcus aureus; assay: Antibacterial activity against methicillin resistant Staphylococcus aureus 1 incubated for 18 hrs by visual inspection method; format: functional
[42] = system: Klebsiella pneumoniae; assay: Antibacterial activity against Klebsiella pneumoniae ATCC 700603 incubated for 18 hrs by visual inspection method; format: functional
[43] = system: Acinetobacter baumannii; assay: Antibacterial activity against multidrug resistant Acinetobacter baumannii 3 incubated for 18 hrs by visual inspection method; format: functional
[44] = system: Staphylococcus aureus; assay: Antibacterial activity against Staphylococcus aureus ATCC 25923 incubated for 18 hrs in presence of 50 mM NaCl by visual inspection method; format: functional
[45] = Stability in Sprague-Dawley rat serum at 62.5 ug/ml measured upto 480 mins by RP-HPLC method; format: ADME, cell-free; conditions: 8 h, at 62.5 µg/mL

Work on `CC[C@H](C)[C@H](NC(=O)[C@H](Cc1c[nH]c2ccccc12)NC(=O)CNC(=O)[C@H](CCC(N)=O)NC(=O)[C@@H](N)CCCNC(=N)N)C(=O)N[C@@H](Cc1c[nH]c2ccccc12)C(=O)N[C@@H](Cc1ccc(O)cc1)C(=O)NCC(=O)N[C@@H](Cc1ccccc1)C(=O)N[C@@H](Cc1ccccc1)C(=O)N[C@@H](Cc1c[nH]c2ccccc12)C(=O)N[C@@H](CCCCN)C(=O)N[C@@H](CCCCN)C(N)=O` (H-RQGWIWYGFFWKK-NH2) yielded an MIC [1] of 3.75 µg/mL (≈ 2.08 µM), an MIC [2] of 7.5 µg/mL (≈ 4.16 µM) and an MIC [3] of 7.5 µg/mL (≈ 4.16 µM). The MIC [4] was 7.5 µg/mL, the MIC [5] was 30 µg/mL and the MIC [6] was 15 µg/mL (≈ 8.33 µM). For the same molecule, the Activity [7] was “Active”, the MIC [8] was 7.5 µg/mL and the MIC [9] was 15 µg/mL (≈ 8.33 µM). The Activity [10] was “Non-Toxic”, the MIC [11] was 30 µg/mL (≈ 16.7 µM) and the MIC [12] was 30 µg/mL (≈ 16.7 µM). The MIC [13] was 7.5 µg/mL (≈ 4.16 µM), the HC5 [14] was 560.73 µg/mL and the Activity [15] was “Active”. The Activity [16] was “Active”, the Activity [17] was “Tde” and the Activity [18] was “Tde”. The MIC [19] was 30 µg/mL (≈ 16.7 µM), the MIC [20] was 15 µg/mL (≈ 8.33 µM) and the Activity [21] was “Active”. It also gave an MIC [22] of 7.5 µg/mL (≈ 4.16 µM), an MIC [23] of 30 µg/mL (≈ 16.7 µM) and an MIC [24] of 30 µg/mL. The Activity [25] was “Active”, the MIC [26] was 7.5 µg/mL (≈ 4.16 µM) and the MIC [27] was 30 µg/mL (≈ 16.7 µM). For the same molecule, the Activity [28] was “Dose-Dependent Effect”, the Activity [29] was “Dose-Dependent Effect” and the Activity [30] was “Dose-Dependent Effect”. The Activity [31] was “Active”, the Activity [32] was “Active” and the MIC [33] was 15 µg/mL (≈ 8.33 µM). For the same molecule, the MIC [34] was 30 µg/mL, the Activity [35] was “Toxic” and the MIC [36] was 30 µg/mL (≈ 16.7 µM). The Activity [37] was “Active”, the Activity [38] was “Active” and the hemolysis at 1 h, 1000 ug/ml [39] was 7.47%. It also gave an MIC [40] of 15 µg/mL (≈ 8.33 µM), an MIC [41] of 7.5 µg/mL (≈ 4.16 µM) and an MIC [42] of 60 µg/mL (≈ 33.3 µM). The MIC [43] was 15 µg/mL (≈ 8.33 µM) and the MIC [44] was 7.5 µg/mL.

With `CC[C@H](C)[C@H](NC(=O)[C@@H](N)CCCNC(=N)N)C(=O)NCC(=O)N[C@@H](Cc1c[nH]c2ccccc12)C(=O)N[C@@H](CS)C(=O)N[C@@H](C)C(=O)N[C@@H](Cc1c[nH]c2ccccc12)C(=O)N[C@@H](CC(C)C)C(=O)N[C@@H](CC(C)C)C(=O)N[C@@H](CCCCN)C(=O)N[C@@H](CC(N)=O)C(=O)N[C@@H](CCCCN)C(=O)N[C@@H](C)C(N)=O` (H-RIGWCAWLLKNKA-NH2) the MIC [1] was 15 µg/mL (≈ 9.63 µM), the MIC [2] was 15 µg/mL (≈ 9.63 µM) and the MIC [3] was 60 µg/mL (≈ 38.5 µM). The MIC [4] was 60 µg/mL, the MIC [5] was 30 µg/mL and the MIC [6] was 15 µg/mL (≈ 9.63 µM). The Activity [7] was “Active”, the MIC [8] was 60 µg/mL and the MIC [9] was 15 µg/mL (≈ 9.63 µM). For the same molecule, the Activity [10] was “Non-Toxic”, the MIC [11] was 30 µg/mL (≈ 19.3 µM) and the MIC [12] was 30 µg/mL (≈ 19.3 µM). For the same molecule, the MIC [13] was 60 µg/mL (≈ 38.5 µM), the HC5 [14] was 779.41 µg/mL and the Activity [15] was “Active”. The Activity [16] was “Active”, the Activity [17] was “Tde” and the Activity [18] was “Tde”. For the same molecule, the MIC [19] was 30 µg/mL (≈ 19.3 µM), the MIC [20] was 15 µg/mL (≈ 9.63 µM) and the Activity [21] was “Active”. It also gave an MIC [22] of 60 µg/mL (≈ 38.5 µM), an MIC [23] of 30 µg/mL (≈ 19.3 µM) and an MIC [24] of 30 µg/mL. For the same molecule, the Activity [25] was “Active”, the MIC [26] was 60 µg/mL (≈ 38.5 µM) and the MIC [27] was 30 µg/mL (≈ 19.3 µM). For the same molecule, the Activity [28] was “Dose-Dependent Effect”, the Stability [45] was “Unstable” and the Activity [29] was “Dose-Dependent Effect”. For the same molecule, the Activity [30] was “Dose-Dependent Effect”, the Activity [31] was “Active” and the Activity [32] was “Active”. The MIC [33] was 15 µg/mL (≈ 9.63 µM), the MIC [34] was 30 µg/mL and the Activity [35] was “Toxic”. For the same molecule, the MIC [36] was 30 µg/mL (≈ 19.3 µM), the Activity [37] was “Active” and the Activity [38] was “Active”. For the same molecule, the hemolysis at 1 h, 1000 ug/ml [39] was 8.18%, the MIC [40] was 15 µg/mL (≈ 9.63 µM) and the MIC [41] was 60 µg/mL (≈ 38.5 µM). For the same molecule, the MIC [42] was 60 µg/mL (≈ 38.5 µM), the MIC [43] was 15 µg/mL (≈ 9.63 µM) and the MIC [44] was 60 µg/mL.
